# How the values were obtained:
# [1] = target: T1, Glucocorticoid receptor (GR) (Rattus norvegicus, UniProt P06536); assay: Receptor binding affinity, glucocorticoid receptor (competitive binding with 3H-dexamethasone); conditions: for Glucocorticoid receptor (GR) dexamethasone = 100% (relative molar binding affinity, RBA): thymus cytosol of adrenalectomized rat, tracer 3H-dexamethasone 20 nM, reference dexamethasone = 100%
# T1 construct: receptors in the cytosol from animal target organs; from tissue; host or cells: thymus cytosol of adrenalectomized rat
# T1 sequence (P06536 1-795): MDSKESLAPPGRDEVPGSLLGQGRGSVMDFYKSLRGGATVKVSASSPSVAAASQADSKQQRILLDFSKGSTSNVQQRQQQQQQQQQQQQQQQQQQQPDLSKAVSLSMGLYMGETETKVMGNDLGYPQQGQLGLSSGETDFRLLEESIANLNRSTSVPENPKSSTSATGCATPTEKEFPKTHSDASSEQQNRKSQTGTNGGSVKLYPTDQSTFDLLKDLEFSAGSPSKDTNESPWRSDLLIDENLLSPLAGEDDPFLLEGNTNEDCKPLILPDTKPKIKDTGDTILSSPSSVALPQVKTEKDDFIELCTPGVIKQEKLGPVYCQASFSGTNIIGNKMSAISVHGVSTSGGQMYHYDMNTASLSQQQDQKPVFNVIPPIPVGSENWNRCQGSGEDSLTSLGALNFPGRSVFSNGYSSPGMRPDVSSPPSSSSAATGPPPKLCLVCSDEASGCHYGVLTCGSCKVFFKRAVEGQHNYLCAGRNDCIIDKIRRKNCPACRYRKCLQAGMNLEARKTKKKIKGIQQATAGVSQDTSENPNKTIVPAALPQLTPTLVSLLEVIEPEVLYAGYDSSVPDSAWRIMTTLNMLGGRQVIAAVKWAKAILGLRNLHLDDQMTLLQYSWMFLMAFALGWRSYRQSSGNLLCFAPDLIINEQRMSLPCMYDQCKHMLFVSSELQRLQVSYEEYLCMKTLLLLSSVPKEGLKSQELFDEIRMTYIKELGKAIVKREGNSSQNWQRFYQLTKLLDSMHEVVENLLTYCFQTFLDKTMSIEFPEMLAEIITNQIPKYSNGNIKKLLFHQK
# Experimental: (§1) The receptor binding affinity was determined by the competitive binding of a specifically binding ^3H-labelled hormone (tracer) and the test compound to receptors in the cytosol from animal target organs, with the aim of achieving receptor saturation and reaction equilibrium.
# (§2) The tracer and increasing concentrations of the test compound (competitor) were coincubated with the receptor-containing cytosol fraction at 0-4° C. for 18 h. After separation of the unbound tracer with a carbon/dextran suspension, the proportion of receptor-bound tracer was measured for each concentration and the IC50 was determined from the concentration series.
# (§3) The following incubation conditions were chosen for the individual receptor types:
# Thymus cytosol of the adrenalectomized rat, thymi stored at −30° C.; buffer: TED. Tracer: ^3H-dexamethasone, 20 nM; reference substance: dexamethasone.
# [2] = target: T2, Progesterone receptor (PR) (Oryctolagus cuniculus, UniProt P06186); assay: Receptor binding affinity, progesterone receptor (competitive binding with 3H-ORG 2058); conditions: uterus cytosol of oestradiol-primed rabbit; tracer 3H-ORG 2058 5 nM; reference progesterone = 100%
# T2 construct: receptors in the cytosol from animal target organs; from tissue; host or cells: uterus cytosol of oestradiol-primed rabbit
# T2 sequence (P06186 1-930): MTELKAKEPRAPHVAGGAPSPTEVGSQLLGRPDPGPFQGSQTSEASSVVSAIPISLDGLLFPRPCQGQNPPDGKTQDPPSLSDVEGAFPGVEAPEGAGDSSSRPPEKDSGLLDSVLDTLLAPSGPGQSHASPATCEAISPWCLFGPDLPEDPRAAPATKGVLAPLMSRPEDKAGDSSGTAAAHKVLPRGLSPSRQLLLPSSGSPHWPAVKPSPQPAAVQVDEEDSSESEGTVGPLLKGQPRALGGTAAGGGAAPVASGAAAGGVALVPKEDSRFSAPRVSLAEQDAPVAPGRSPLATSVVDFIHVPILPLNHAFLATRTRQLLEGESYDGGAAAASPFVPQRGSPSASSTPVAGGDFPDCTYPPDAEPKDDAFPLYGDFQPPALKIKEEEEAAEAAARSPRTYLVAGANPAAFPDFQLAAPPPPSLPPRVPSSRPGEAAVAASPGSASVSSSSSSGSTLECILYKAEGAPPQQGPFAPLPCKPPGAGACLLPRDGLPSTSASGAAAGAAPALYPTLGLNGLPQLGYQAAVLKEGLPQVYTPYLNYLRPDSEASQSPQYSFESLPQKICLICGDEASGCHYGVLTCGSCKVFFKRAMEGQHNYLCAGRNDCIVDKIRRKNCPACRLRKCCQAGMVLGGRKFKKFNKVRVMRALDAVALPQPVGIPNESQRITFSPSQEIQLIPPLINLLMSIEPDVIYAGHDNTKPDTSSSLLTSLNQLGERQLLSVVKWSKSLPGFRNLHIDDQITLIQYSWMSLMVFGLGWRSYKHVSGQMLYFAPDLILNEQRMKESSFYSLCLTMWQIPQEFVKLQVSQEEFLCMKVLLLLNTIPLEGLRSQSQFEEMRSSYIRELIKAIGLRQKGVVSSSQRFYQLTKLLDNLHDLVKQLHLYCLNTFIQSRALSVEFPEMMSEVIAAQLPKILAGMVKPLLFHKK
# Experimental: as §1, §2, §3
# Uterus cytosol of the oestradiol-primed rabbit, homogenized in TED buffer (20 mM Tris/HCI, pH 7.4; 1 mM ethylenediaminetetraacetate, 2 mM dithiothreitol) containing 250 mM sucrose; kept at −30° C.
Compound,"Glucocorticoid receptor (GR) dexamethasone = 100% (relative molar binding affinity, RBA) [1] [%]",Ratio GR/PR ([1]; ratio of RBA at GR to RBA at PR),"Progesterone receptor (PR) progesterone = 100% (relative molar binding affinity, RBA) [2] [%]"
"CC#C[C@]1(O)CC[C@H]2[C@@H]3CCC4=CC(=O)CCC4=C3[C@@H](c3ccc(N(C)C)cc3)C[C@@]21C [RU 38486, mifepristone]",683,–,–
"4-[17aβ-Methoxy-17aα-(methoxymethyl)-17a-homo-3-oxooestra-4,9-dien-11β-yl]benzaldehyde (1E)-[O-(ethylamino)carbonyl]oxime [Example 6]",450,2.8,158
